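Where inhibition never reached the appropriate level, the endpoint shown equals the highest concentration tested. Otherwise, values were interpolated linearly from a five-concentration, 48-hour dose response in 96-well plates. Definition used: TGI = concentration required for complete inhibition of growth.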
Columns and labels:
Test in all cases: NCI anticancer screen, dose series, 48 h
SN12C renal = tested on: SN12C renal
CCRF-CEM leukemia = tested on: CCRF-CEM leukemia
OVCAR-5 ovarian = tested on: OVCAR-5 ovarian
UACC-62 melanoma = tested on: UACC-62 melanoma
MDA-MB-435 = tested on: MDA-MB-435
SK-MEL-28 melanoma = tested on: SK-MEL-28 melanoma
SF-539 CNS = tested on: SF-539 CNS
K-562 leukemia = tested on: K-562 leukemia
UACC-257 melanoma = tested on: UACC-257 melanoma
LOX IMVI melanoma = tested on: LOX IMVI melanoma
A498 renal = tested on: A498 renal
CAKI-1 renal = tested on: CAKI-1 renal

## CC(CC(C)[C@H]1CCC2[C@H]3C(CC(=O)[C@@]21C)[C@@]1(C)CCC(O)C[C@H]1C[C@@H]3O)C(=O)O (stereo not given in full)
SN12C renal
  TGI: > 100 µM
CCRF-CEM leukemia
  TGI: > 100 µM
OVCAR-5 ovarian
  TGI: > 100 µM
UACC-62 melanoma
  TGI: > 100 µM
MDA-MB-435
  TGI: > 100 µM
SK-MEL-28 melanoma
  TGI: > 100 µM
SF-539 CNS
  TGI: > 100 µM
K-562 leukemia
  TGI: > 100 µM
UACC-257 melanoma
  TGI: > 100 µM
LOX IMVI melanoma
  TGI: > 100 µM
A498 renal
  TGI: > 100 µM
CAKI-1 renal
  TGI: > 100 µM

## COCCNC1CCC(=O)c2[nH]c3ccccc3c21 (stereo not given)
SN12C renal
  TGI: > 100 µM
CCRF-CEM leukemia
  TGI: > 100 µM
OVCAR-5 ovarian
  TGI: > 100 µM
MDA-MB-435
  TGI: > 100 µM
SK-MEL-28 melanoma
  TGI: > 100 µM
SF-539 CNS
  TGI: > 100 µM
K-562 leukemia
  TGI: > 100 µM
UACC-257 melanoma
  TGI: > 100 µM
LOX IMVI melanoma
  TGI: > 100 µM
A498 renal
  TGI: > 100 µM
CAKI-1 renal
  TGI: > 100 µM

## COc1cccc(N2C(=O)C3c4[nH]c5ccc(C)cc5c4C4CCC(C)CC4C3C2=O)c1 (stereo not given)
SN12C renal
  TGI: > 100 µM
CCRF-CEM leukemia
  TGI: > 100 µM
OVCAR-5 ovarian
  TGI: > 100 µM
UACC-62 melanoma
  TGI: > 100 µM
MDA-MB-435
  TGI: > 100 µM
SK-MEL-28 melanoma
  TGI: > 100 µM
SF-539 CNS
  TGI: > 100 µM
K-562 leukemia
  TGI: > 100 µM
UACC-257 melanoma
  TGI: > 100 µM
LOX IMVI melanoma
  TGI: > 100 µM
A498 renal
  TGI: > 100 µM
CAKI-1 renal
  TGI: > 100 µM

## CN(C)CCN=C1Nc2ccccc2C(=O)N2CSCC12 (stereo not given)
SN12C renal
  TGI: > 100 µM
CCRF-CEM leukemia
  TGI: > 100 µM
OVCAR-5 ovarian
  TGI: > 100 µM
UACC-62 melanoma
  TGI: > 100 µM
MDA-MB-435
  TGI: > 100 µM
SK-MEL-28 melanoma
  TGI: > 100 µM
K-562 leukemia
  TGI: > 100 µM
UACC-257 melanoma
  TGI: > 100 µM
LOX IMVI melanoma
  TGI: > 100 µM
A498 renal
  TGI: > 100 µM
CAKI-1 renal
  TGI: > 100 µM

## COc1ccc(C(c2cc(OC)c(OC)c(OC)c2)N2C(=O)CCC2C(=O)O)cc1 (stereo not given)
SN12C renal
  TGI: > 100 µM
CCRF-CEM leukemia
  TGI: > 100 µM
OVCAR-5 ovarian
  TGI: > 100 µM
UACC-62 melanoma
  TGI: > 100 µM
MDA-MB-435
  TGI: 48.6 µM
SK-MEL-28 melanoma
  TGI: > 100 µM
SF-539 CNS
  TGI: 52 µM
K-562 leukemia
  TGI: > 100 µM
UACC-257 melanoma
  TGI: > 100 µM
LOX IMVI melanoma
  TGI: > 100 µM
A498 renal
  TGI: > 100 µM
CAKI-1 renal
  TGI: > 100 µM

## COc1ccc2c(c1)C1c3ccccc3CCN1CCC2 (stereo not given)
SN12C renal
  TGI: > 100 µM
CCRF-CEM leukemia
  TGI: > 100 µM
OVCAR-5 ovarian
  TGI: > 100 µM
UACC-62 melanoma
  TGI: > 100 µM
MDA-MB-435
  TGI: 51.1 µM
SK-MEL-28 melanoma
  TGI: > 100 µM
SF-539 CNS
  TGI: > 100 µM
K-562 leukemia
  TGI: > 100 µM
UACC-257 melanoma
  TGI: > 100 µM
LOX IMVI melanoma
  TGI: > 100 µM
A498 renal
  TGI: > 100 µM
CAKI-1 renal
  TGI: > 100 µM

## CN(C)c1cccc(/C=C(\C#N)c2ccccc2)c1
SN12C renal
  TGI: > 100 µM
CCRF-CEM leukemia
  TGI: > 37.3 µM
OVCAR-5 ovarian
  TGI: 64 µM
UACC-62 melanoma
  TGI: > 100 µM
MDA-MB-435
  TGI: 0.18 µM
SK-MEL-28 melanoma
  TGI: > 100 µM
SF-539 CNS
  TGI: 4.32 µM
K-562 leukemia
  TGI: > 14.4 µM
UACC-257 melanoma
  TGI: > 71.7 µM
LOX IMVI melanoma
  TGI: > 59.5 µM
A498 renal
  TGI: 35.4 µM
CAKI-1 renal
  TGI: > 100 µM

## Cc1ncc([N+](=O)[O-])n1CCNC(=O)Cn1ccnc1[N+](=O)[O-]
SN12C renal
  TGI: > 100 µM
CCRF-CEM leukemia
  TGI: > 100 µM
OVCAR-5 ovarian
  TGI: > 100 µM
UACC-62 melanoma
  TGI: > 100 µM
MDA-MB-435
  TGI: > 100 µM
SK-MEL-28 melanoma
  TGI: > 100 µM
SF-539 CNS
  TGI: > 100 µM
K-562 leukemia
  TGI: > 100 µM
UACC-257 melanoma
  TGI: > 100 µM
A498 renal
  TGI: > 100 µM
CAKI-1 renal
  TGI: > 100 µM

## CC(C)(C)OC(=O)NCC(=O)N(CCc1ccc(Cl)c(Cl)c1)CCN1CCCC1
SN12C renal
  TGI: 32.7 µM
CCRF-CEM leukemia
  TGI: 28.4 µM
OVCAR-5 ovarian
  TGI: 38.7 µM
UACC-62 melanoma
  TGI: 32.2 µM
MDA-MB-435
  TGI: 28.4 µM
SK-MEL-28 melanoma
  TGI: 29.7 µM
SF-539 CNS
  TGI: 32.8 µM
K-562 leukemia
  TGI: 25.1 µM
UACC-257 melanoma
  TGI: 29.9 µM
LOX IMVI melanoma
  TGI: 29.3 µM
A498 renal
  TGI: 32.8 µM
CAKI-1 renal
  TGI: 36 µM
